Measured values: patent publication US11672813B2, “Bortezomib compositions” (MAIA Pharmaceuticals, Inc., priority 2021, dated 2023)

Assays:
[1] = Estimated solubility of bortezomib in select non-aqueous solvents (visual, incremental solvent addition); format: physicochemical; conditions: for Observation: approximately 25 mg
Method: The appearance of the solution was recorded.

[2] = Visual dissolution and physical stability of bortezomib formulations with low concentrations of benzyl alcohol or DMSO in water; format: physicochemical; conditions: target 2.5 mg/mL; benzyl alcohol (2% v/v), DMSO (5% v/v) or combination, water added afterwards
Method: Initial formulation experiments with low concentrations of various non-aqueous solvents were conducted targeting a bortezomib concentration of 2.5 mg/mL. Attempts to solubilize bortezomib were conducted using low concentrations of benzyl alcohol (2% v/v), or dimethyl sulfoxide (5% v/v), or a combination of these solvents. […] For these formulations, the non-aqueous solvent was added to bortezomib to dissolve it, followed by addition of water to the bortezomib-solvent mixture.
Various concentrations of DMSO were explored as the non-aqueous component of the formulation (2% v/v to 5% v/v in water). Bortezomib was first completely dissolved in the batch volume of DMSO to form a concentrated “premix” solution prior to making up the batch to the target concentration (2.5 mg/mL) with water. This was done to facilitate the subsequent dissolution of bortezomib in the aqueous component.

- Observation ([1]; N-methyl pyrrolidone (NMP)): Completely dissolved after 1 mL
- Observation: solvent needed to dissolve approximately 25 mg ([1]; alcohol (ethanol)): Approximately 5.5 mL of solvent
- Observation ([1]; benzyl alcohol): Completely dissolved after 0.5 mL
- Observation ([1]; dimethyl sulfoxide (DMSO)): Completely dissolved after 0.5 mL
- Observation ([1]; glycerol, up to 10 mL): No significant dissolution observed up
- Observation ([1]; polyethylene glycol 400, up to 10 mL): No significant dissolution observed up
- Observation: solvent needed to dissolve approximately 25 mg ([1]; propylene glycol): Approximately 7 mL of solvent needed
- Outcome of dissolution attempt [2]: precipitated after addition of water
Structure (SMILES): CC(C)C[C@H](NC(=O)[C@H](Cc1ccccc1)NC(=O)c1cnccn1)B(O)O [Bortezomib, [(1R)-3-methyl-1-[[(2S)-1-oxo-3-phenyl-2-[(pyrazinylcarbonyl)amino]propyl]amino]butyl] boronic acid]
